{"source": "patent US20060030537A1", "about": "“Ceramide kinase and uses thereof” (priority 2004, published 2006)", "key": {"ceramide kinase mRNA": {"test_system": "ceramide kinase mRNA", "test": "RT-PCR of ceramide kinase mRNA in A549 cells", "format": "cell-based, human", "details": "26 hours after transfection, normalized to 18s ribosomal RNA", "protocol": "FIGS. 6A-6B. Ceramide kinase RNAi downregulates endogenous ceramide kinase activity and mRNA levels. FIG. 6A. The effect of ceramide kinase RNAi on endogenous ceramide kinase activity. A549 cells (5×10^4) were transfected with the 21-nucleotide duplexes for ceramide kinase or scrambled control sequence. Following the 4 hour transfection, cells incubated in normal growth media for 26 hours. Cells were then washed, lysed in assay buffer, and assayed for ceramide kinase activity. Data are presented as % control ceramide kinase activity with control RNAi (Control) or ceramide kinase RNAi (CerK RNAi). Data are representative of three separate determinations on two separate occasions. FIG. 6B. The effect of ceramide kinase RNAi on the mRNA levels of ceramide kinase. Following the same procedure as outlined in FIG. 6A, total RNA was extracted and analyzed via logarithmic reverse-transcriptase polymerase chain reaction for human ceramide kinase and 18s ribosomal RNA. Data are presented as percent control after the densitometry of ceramide kinase mRNA was normalized to 18s ribosomal RNA levels with control RNAi (Control) or ceramide kinase RNAi (CerK RNAi). Data are representative of three separate determinations on two separate occasions. […]"}, "L929 fibroblasts": {"test_system": "L929 fibroblasts", "test": "PGE2 synthesis in L929 fibroblasts", "format": "cell-based", "details": "L929 fibroblasts", "protocol": "FIGS. 3A-3B. FIG. 3A. The effects of ceramide-1-phosphate on TXB2 synthesis. A549 cells (1×10^5) were treated with D-e-C16 ceramide-1-phosphate (1 μM) solubilized in 2% dodecane/98% ethanol (final concentration in treatments was 0.002% dodecane/0.098% ethanol (EtOH)) for the indicated times. The results are presented as % control of TXB2 controlled for equivalent number of cells by MTT assay. Data are representative of 3 separate determinations on 2 separate occasions. FIG. 3B. The effects of ceramide-1-phosphate on AA release and PGE2 synthesis in L929 fibroblasts. L929 cells (5×10^4) were labeled overnight with 5 μCi/mL [^3H]-arachidonic acid (5 nM). Cells were washed and placed in DMEM supplemented with 2% fetal bovine serum for two hours. Cells were then treated with 2.5 μM D-e-C16 ceramide-1-phosphate (solubilized in 98% ethanol/2% dodecane) for the indicated times. […]\nQuantification of prostaglandin E2 and thromboxane B2 synthesis: For measurement of PGE2 and TXB2 levels, aliquots of media were taken at indicated time points and assayed according to manufacturer's instructions using the prostaglandin E2 and thromboxane B2 monoclonal EIA Kit from Cayman Chemical. […] Results were controlled for equivalent number of cells quantified by MTT assay."}, "A549 cells": {"test_system": "A549 cells", "test": "Quantification of arachidonic acid (AA) release in A549 cells", "format": "cell-based", "protocol": "Cell Culture: A549 lung adenocarcinoma cells (epithelial-derived) were grown in low glucose DMEM (Invitrogen) supplemented with L-glutamine, 10% (v/v) fetal bovine serum (Invitrogen), 200 U/ml of penicillin G sodium, and 200 μg/ml of streptomycin sulfate. Cells were maintained under 80% confluency and standard incubator conditions (humidified atmosphere, 95% air, 5% CO2, 370 C). For treatment, cells were incubated for 2 hours in low glucose DMEM (Invitrogen) supplemented with L-glutamine, 2% (v/v) fetal bovine serum (Invitrogen), 200 U/ml of penicillin G sodium, and 200 μg/ml of streptomycin sulfate prior to the addition of agonist.\nQuantification of arachidonic acid (AA) release: A549 cells (5×10^4) were labeled overnight with 5 μCi/mL [^3H]-AA (5 nM) (NEN). Cells were washed and incubated in DMEM supplemented with 2% fetal bovine serum for 2 hours. Following treatment, media was transferred to 1.5 mL polypropylene tubes, centrifuged at 10,000×g, and ^3H-AA cpm determined by scintillation counting. Results were controlled for equivalent number of cells quantified by MTT assay as described (Chalfant, C. E., Rathman, K., Pinkerman, R. L., Wood, R. E., Obeid, L. M., Ogretmen, B., and Hannun, Y. A. (2002) J. Biol. Chem. 277, 12587-12595) and by verification of total AA labeling by scintillation counting. For the experiments in FIG. 4, purified SMase D was obtained from Dr. Alfred H. Merrill, Jr., and SMase C (purified from Bacillus cereus) was obtained commercially from Sigma.\nRNAi design and transfections: Knock-downs of ceramide kinase were performed essentially as described using sequence specific siRNA reagents (http:www.mpibpc.gwdg.de/abteilungen/100/105/sirna.html) (Lassus, P., Opitz-Araya, X., and Lazebnik, Y. (2002) Science 297, 1352-1354) using human ceramide kinase RNAi starting 142 nucleotides from start codon ([…]dTd (SEQ ID NO: 3) and […]dTd (SEQ ID NO:4)). All sequences were evaluated against the database using the NIH blast program to test for specificity (Xeragon, A Qiagen Company). A549 cells (3×10^4) were transfected with the 21-nucleotide duplexes using OligofectAMINE (Invitrogen) as recommended by the manufacturer. Following the 4 hour transfection, cells were treated and assayed for AA release or PGE2 synthesis at 26 hours post-transfection."}, "sphingosine kinase-1": {"test_system": "sphingosine kinase-1", "test": "Immunoreactive levels of sphingosine kinase-1 after ceramide kinase RNAi", "format": "cell-based", "details": "cells transfected with RNAi targeted to ceramide kinase"}}}
{"substance": "ceramide kinase RNAi: 21-nucleotide duplex, human ceramide kinase RNAi starting 142 nucleotides from start codon (SEQ ID NO: 3 and 4) (chain 1 UGCCUGCUCUGUGCCUGUATT; chain 2 UACAGGCACAGAGCAGGCATT; chemistry not given here)", "values": [{"measurement": "decrease of ceramide kinase mRNA levels", "setting": "ceramide kinase mRNA", "result": 73, "unit": "%"}, {"measurement": "inhibition of PGE2 synthesis in response to IL-1β", "setting": "L929 fibroblasts", "result": "over 60%"}, {"measurement": "inhibition of AA release in response to A23187", "setting": "A549 cells; A23187 1 μg/mL, 26 hours post-transfection", "result": 72, "unit": "%"}, {"measurement": "AA release in response to C-1-P treatment", "setting": "A549 cells; C-1-P 2.5 μM for 5 hours", "result": "no effect"}, {"measurement": "inhibition of AA release in response to IL-1β", "setting": "A549 cells; IL-1β 2.5 ng/mL for 4 hours, 26 hours post-transfection", "result": 78, "unit": "%"}, {"measurement": "IC50", "setting": "A549 cells; IL-1β or A23187, read-out: IC50 of inhibition of agonist-induced AA release", "result": "~30", "unit": "nM"}, {"measurement": "immunoreactive levels of sphingosine kinase-1", "setting": "sphingosine kinase-1", "result": "no decrease"}]}
